Experimental data taken from article PMC4721923 (PLoS ONE, 2015).
Read-outs that look alike come from different tables or passages of the source.

Experiments:
[1] = tested on: HEL 92.1.7 cells (erythroleukemia); test: Chemosensitivity assay (MTT-assay), HEL 92.1.7; format: cell-based, human; conditions: 96 hours of incubation, mean ± SEM
Description: (§1) Depending on the characteristics of the cells, two different assays were performed. For adherently growing cells (HaCaT, HT-29, NCI-H460, SK-MEL-3, MG-63, Capan-1), cytotoxic and cytocidal effects were determined in the crystal violet assay, whereas for loosely adherent cells (LNCaP, SK-ES-1) and cells growing in suspension (HEL 92.1.7, Jurkat, U-937) the MTT-assay was used with minor modifications. In brief, 1.5 · 10^3 (HaCaT, HT-29, NCI-H460, SK-MEL-3, MG-63, Capan-1) or 5 · 10^3 (Jurkat, U-937, HEL92.1.7, LNCaP, SK-ES-1) cells per well were seeded into flat-bottom 96-well plates (Sarstedt, Nümbrecht, Germany). All compounds were used as solutions prepared in DMSO and tested at final concentrations (8 replicates per concentration) of 1, 3, 10, 30 and 50 μM. In case of the vehicle control and test compounds, the final DMSO concentration amounted to 0.1%. Absorbance was measured at 580 nm in a 96-well plate reader (GENios pro microplate reader, Tecan, Salzburg, Austria). Effects were quantified as previously described for both assays.

[2] = tested on: NCI-H460 cells (large cell lung cancer); test: Chemosensitivity assay (crystal violet assay), NCI-H460; format: cell-based, human; conditions: 96 hours of incubation, mean ± SEM
Description: as §1

OCT3 = molecular target: T1, OCT3 (Homo sapiens, UniProt O75751); test: Flow cytometric ASP+-uptake inhibition, HEK-OCT3; format: cell-based; conditions: for potency relative to TPA at OCT3: from IC50 values, p ≤ 0.05
T1 construct: expressed in transfected cells; host or cells: HEK293 (HEK-OCT3)
T1 sequence (O75751 1-556): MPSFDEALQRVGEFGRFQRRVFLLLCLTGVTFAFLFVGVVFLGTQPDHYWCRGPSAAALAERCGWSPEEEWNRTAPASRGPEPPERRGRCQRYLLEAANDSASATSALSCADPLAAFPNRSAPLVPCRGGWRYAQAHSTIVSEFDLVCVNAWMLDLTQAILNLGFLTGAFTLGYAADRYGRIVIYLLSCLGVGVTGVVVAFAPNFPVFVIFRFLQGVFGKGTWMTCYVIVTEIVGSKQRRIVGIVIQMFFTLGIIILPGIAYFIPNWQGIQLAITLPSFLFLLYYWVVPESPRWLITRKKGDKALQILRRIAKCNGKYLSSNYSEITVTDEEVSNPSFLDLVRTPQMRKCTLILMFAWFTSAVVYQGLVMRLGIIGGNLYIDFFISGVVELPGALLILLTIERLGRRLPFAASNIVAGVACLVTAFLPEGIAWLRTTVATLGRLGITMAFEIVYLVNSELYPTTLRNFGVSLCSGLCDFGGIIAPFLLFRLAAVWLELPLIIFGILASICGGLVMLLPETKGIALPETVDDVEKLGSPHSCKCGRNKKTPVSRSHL
Description: The previously described fluorescent substrate of organic cation transporters, 4-(4-dimethylaminostyryl)-N-methylpyridinium (ASP^+), was used to determine the function of OCT1 and OCT3 by flow cytometry in the absence and the presence of bendamustine and selected bendamustine esters. HEK293 cells expressing the transporter of interest were trypsinized and washed twice with PBS, prior to re-suspension of 0.5 · 10^6 cells in 500 μL of PBS containing 2% (v/v) FCS. The cells were incubated with ASP^+ (100 μM stock solution in PBS containing 10% DMSO) for 5 minutes, allowing for cellular accumulation, and subsequently analyzed with a FACSCalibur flow cytometer. ASP^+ was excited at 488 nm and the fluorescence was measured using a 530/30 nm and a 585/42 band-pass filter. At least 1 · 10^4 single cells were analyzed by appropriate FSC/SSC gating.
The cells were pre-incubated with the respective test compound at different concentrations at room temperature for 10 minutes. Afterwards, ASP^+ was added to a final concentration of 1 μM, and the samples were incubated at 37°C in the dark for 5 minutes. Subsequently, the cells were washed, re-suspended in ice-cold PBS/FCS and stored on ice in the dark until measurement.
The normalized mean fluorescence intensities of the OCT expressing cells, set to 100% in the absence of an inhibitor, were calculated by subtracting the mean fluorescence intensity of unspecific ASP^+ uptake into HEK-Co control cells. The normalized fluorescence intensities in the presence of an inhibitor were plotted against the logarithm of the concentrations of the test compounds to calculate IC50 values. The “log (inhibitor) vs. normalized response-variable slope” equation of GraphPad Prism 5.01 was used for this purpose.

NCI-H460 cells = test: Stability in the presence of cells (HPLC); format: in vitro ADME, human; conditions: incubation period of 10 minutes
Description: The recently reported validated HPLC method was applied.
Samples were measured immediately before the incubation (t = 0 minutes) and after 10 minutes of incubation at 25°C (t = 10 minutes). […] (TIF) Click here for additional data file.

HT-29 cells = test: Quantification of cell-associated compound by HPLC, HT-29; format: cell-based, human; conditions: 30 μM, 10 minutes; for amount of cell-associated compound: mean ± SEM
Description: Accumulation of bendamustine and selected bendamustine esters by HT-29 and NCI-H460 cells was determined by HPLC. For this purpose, 1.5 · 10^6 cells/well were seeded into 6-well plates (Sarstedt, Nümbrecht, Germany). After two days of cultivation, the cells were incubated in PBS containing 30 μM of 1, 2, 4 or 5 and 200 μM of umbelliferone as internal standard at 37°C for 10 minutes. After removing the medium, the cells were washed three times with PBS. Untreated cells were detached with trypsin/EDTA and counted. The treated cells were harvested by adding 200 μL of ice-cold perchloric acid (1 M) and scraping. Subsequently, the samples were vortexed and sonicated (Branson 3200 ultrasonic cleaner; Branson, Danbury, USA) for 10 minutes. After 5 minutes of centrifugation (13000 g, 4°C), the supernatants were filtered (0.2 μm Phenex; Phenomenex, Aschaffenburg, Germany) and directly analyzed by HPLC with fluorescence detection according to a recently reported validated procedure. The normalization of the measured concentration to the cell count allowed for a calculation of the cell-associated amount of the respective test compound. Additionally, the ratio of cell-associated substance compared to the applied concentration (30 μM) was calculated based on an average cell volume of 3 pL.

Compound | IC50 [1] | IC50 ([1]; Homo sapiens, HEL 92.1.7, 96 h) | IC50 [2] | IC50 ([2]; Homo sapiens, read-out: IC50) | IC50 (OCT3) | inhibition at 200 µM (OCT3; read-out: inhibition of OCT3) | stability in the presence of cells (NCI-H460 cells) | amount of cell-associated compound (HT-29 cells) | potency relative to TPA at OCT3 (OCT3) | cellular enrichment relative to bendamustine (HT-29 cells)
Cn1c(CCCC(=O)O)nc2cc(N(CCCl)CCCl)ccc21 [Compound 1, bendamustine, reference compound] | 86.2 ± 2.6 µM | > 80 µM | only very weakly active | 90 ± 4.3 µM | > 200 µM | 37% | Other decomposition products were not detected | 0.07 ± 0.011 nmol/10^6 cells |  | 
COC(=O)CCCc1nc2cc(N(CCCl)CCCl)ccc2n1C [Compound 2] |  | 2.5 ± 0.1 µM |  | 4.8 ± 0.3 µM | 5.1 ± 1.4 µM |  | Other decomposition products were not detected | 2.05 ± 0.39 nmol/10^6 cells | approximately four | 
Cn1c(CCCC(=O)OCCN2CCOCC2)nc2cc(N(CCCl)CCCl)ccc21 [Compound 4] |  | 2.4 ± 1 µM |  | 9.7 ± 1.3 µM | 5.1 ± 0.02 µM |  | Other decomposition products were not detected | 1.59 ± 0.23 nmol/10^6 cells | approximately four | 
Cn1c(CCCC(=O)OCCN2CCCC2)nc2cc(N(CCCl)CCCl)ccc21 [Compound 5] |  | 1 ± 0.01 µM |  | 0.9 ± 0.01 µM | 3.41 ± 0.16 µM |  | Other decomposition products were not detected | 5.01 ± 0.34 nmol/10^6 cells | approximately four | approximately 70 fold
